This is an account of results in patent publication US20070286823A1, “COMPOSITIONS HAVING ANTI-DENTAL CARIES FUNCTION” (Ezaki Glico Co., Ltd., priority 2001, published 2007).

Assay [1] is described as follows: simple remineralization test system (hydroxyapatite, soluble calcium by OCPC method). As to conditions: for remineralization effect (FIG. 12): final concentration of 0.1%. The text has this:
These conditions for easy remineralization are simplified as follows: in a system including hydroxyapatite, calcium and phosphorus are supplied for crystallization and soluble calcium is reduced; and in a system including no hydroxyapatite, phosphorus and calcium are not deposited and the high solubility thereof is maintained. Therefore, the magnitudes of the solubility of calcium in the two systems were compared to examine the remineralization effect. These simple test systems will be described below. […] For this method, there are the following constraints: a long time required for evaluation; a high-level experimental technique required; etc. Therefore, there is a demand for a simple evaluation system capable of quickly capturing changes in dentin mineral concentrations. Remineralization in an early dental caries lesion in the enamel of teeth is considered to develop via the following two processes:
This method comprises the steps of: (A) precipitating calcium in a solution containing phosphorus, calcium, and tooth components in the presence of the sample; (B) measuring a calcium concentration in the solution or the amount of the precipitated calcium after the precipitation; (C) precipitating calcium in the solution in the absence of the sample; (D) measuring a calcium concentration in the solution or the amount of the precipitated calcium after the precipitation; and (E) comparing calcium concentrations or the amounts of the precipitated calcium in steps (B) and (D). In a preferred embodiment, the above-described solution may contain hydroxyapatite, a buffer, KH2PO4 and CaCl2. The “tooth component” to be contained in the above-described solution is any material that precipitates phosphorus and calcium to produce hydroxyapatite due to remineralization. Use of hydroxyapatite is preferable. Alternatively, teeth of mammals such as a bovine, and sections or fractions thereof may be used. When the solution for calcium precipitation is prepared, the sequence of addition of the above-described phosphorus, calcium, and the other tooth components is not limited. Preferably, first the sample, then, phosphorus, calcium chloride solution, and the tooth component suspension or deionized water are added in this order to prepare the solution. The pH of the solution is preferably adjusted after the addition of KH2PO4. Calcium precipitation typically occurs by incubation at room temperature for ten and several hours to several days (preferably 10 hours to 7 days, more preferably 18 hours to 42 hours). The calcium solubility of the solution can be measured by any procedure known to those skilled in the art. The calcium solubility of the solution may be measured by OCPC method (using calcium C test Wako manufactured by Wako Pure Chemicals). Alternatively, the amount of precipitated calcium in the solution can be measured. The amount of precipitated calcium in the solution may be measured by any procedure known to those skilled in the art. The calcium solubility of the solution may be measured by any procedure known to those skilled in the art. Examples of such a method include the ICP method (Inductive Coupled Plasma method), atomic absorption analysis and an ion electrode method.
In order to examine the remineralization phenomenon in a more simple manner, conditions under which remineralization occurs more easily were simplified. In a system including hydroxyapatite, calcium and phosphorus are supplied for crystallization and soluble calcium is reduced. In contrast, in a system including no hydroxyapatite, calcium and phosphorus are not precipitated so that the solubility thereof is held at a high level. Based on these facts, the following test system was designed.

The test system of the next assay is S. mutans strain 8148. Description: effect on fermentation of sucrose (pH of bacterial cell suspension). The assay is classed as cell-based. Particulars: 0.684% sugar added to 20% bacterial cell suspension; after 10 minutes. Here is the method:
S. mutans strain 8148 was incubated in 1,000 ml of brain heart infusion medium (manufactured by DIFCO Corporation) at 37° C. for 14 hours. Thereafter, the bacteria were collected by centrifugation at 6,000 rpm for 20 minutes. The bacteria was washed with phosphate buffered saline (PBS, pH 7.2), and suspended in the same PBS to 40% (v/v). To measure the pH, a reaction mixture (250 μl) was made of 125 μl of 40% bacterial cell suspension, 62.5 μl of 80 mM sucrose, and 62.5 μl of an aqueous solution containing various oligosaccharides (5% phosphorylated oligosaccharide sodium salt and phosphorylated oligosaccharide calcium salt). The pH of the reaction mixture was continuously measured with a pH meter (manufactured by Toa Denpa) while being incubated at 37° C.

For assay [2] the following is noted: prior art; cited from earlier work.
The nature of assay [3]: remineralization test system using bovine tooth pieces (Example 3). Here is the method: The remineralization effect of a buffering agent may be examined by a known method, such as a remineralization test system using bovine tooth sections which is described in Inaba. D et al., Eur. J. Sci. 105:74-80, 1997; Inaba. D et al., J. Dent. Health. 47:67-74, 1997; and Iijima. Y et al., Dental Caries Research. 33:206-213, 1999.
This experiment was conducted basically in accordance with Inaba. D et al., Eur. J. Sci. 105:74-80, 1997; Inaba. D et al., J. Dent. Helth. 47:67-74, 1997; and Iijima. Y et al., Caries Research. 33:206-213, 1999.
Tooth pieces used in the experiment were prepared as follows: cubic bovine tooth pieces 3 mm per side were placed so that the enamel surfaces thereof are up. The pieces were covered with composite resin except for the enamel surfaces. The enamel was treated with wet abrasives and paper. Demineralization was conducted as follows: the tooth pieces were immersed in 1% lactate gel (pH 5.0) containing 6% carboxymethylcellulose gel at 37° C. for 3 weeks. Remineralization was conducted as follows: the tooth pieces subjected to demineralization were immersed in 20 mM 2-[4-(2-hydroxyethyl)]-1-piperidinylethane sulfonate (HEPES) buffer (pH 7.0) containing 1.5 mM CaCl2 and 0.9 mM KH2PO4 at 37° C. for one week.
After each treatment, a 200 μm-thick section was prepared from each treated tooth piece, and the mineral concentration distribution thereof was analyzed from the microradiographic images (not shown). […]
After each treatment, the calcium and phosphorus concentrations of the post-remineralization solution were also analyzed. The solution was centrifuged at 10,000 g for two minutes, and the supernatant was analyzed. The phosphorus concentration was determined by molybdic acid method (“Shin-ban Bunseki Kagaku Jikken [New Edition Analyical Chemistry Experiment] (1st ed.), pp. 313-314, published by Kagaku Dojin K. K.), and the calcium concentration was determined by OCPC method (manufactured by Wako Pure Chemicals: measured by a “calcium C test Wako” kit).

The nature of assay [4]: simple remineralization test system (hydroxyapatite, soluble calcium by OCPC method). As to conditions: 37° C., 8 days.
Where [5] appears, read: remineralization solution + 2 ppm F, supernatant.

On to “chondroitin sulfate C [chondroitin sulfate C sodium salt]”, for which the “remineralization effect (FIG. 12)” value in assay [1] is “as good as or better than that of the phosphorylated oligosaccharide sodium salt”.

With `OC[C@H]1O[C@@](CO)(O[C@H]2O[C@H](CO)[C@@H](O)[C@H](O)[C@H]2O)[C@@H](O)[C@@H]1O` [sucrose], the “pH of the reaction liquid” value in the assay on S. mutans strain 8148 was 4.0.

With `F` [F, fluorine], in assay [2], the “concentration at which sufficient efficacy is exerted (remineralization)” value is listed as “about 2 ppm”. Moreover, in assay [3] (demineralized bovine tooth pieces, remineralization solution + sample, 37° C., one week), the “lesion depth (FIG. 2)” value is recorded as “the lesion depth was unchanged”. In addition, in assay [3] (setting [5]), the “Ca (mM) of the post-remineralization solution” value is listed as 0.73 mM and the “Pi (mM) of the post-remineralization solution” value is 0.41 mM.

Turning to palatinit, the “sample concentration exhibiting a remineralization effect (FIGS. 7A to 7C)” value in assay [4] came out at 20%.

Consider `OC[C@H]1O[C@H](OC[C@H]2OC(O)(CO)[C@@H](O)[C@@H]2O)[C@H](O)[C@@H](O)[C@@H]1O` (stereo partly drawn) [palatinose, 6-O-α-D-Glucopyranosyl-D-Fructofuranose], for which the “sample concentration exhibiting a remineralization effect (FIGS. 7A to 7C)” value in assay [4] was found to be 20%. In addition, the “remineralization effect (FIG. 13)” value in assay [1] (20% addition group) is given as “the remineralization effect as previously reported (as above) was confirmed”.

As to `OC[C@@H](O)[C@H](O)[C@@H](O)CO` [xylitol], the “sample concentration exhibiting a remineralization effect (FIGS. 7A to 7C)” value in assay [4] worked out at 20%. In addition, the “remineralization effect (FIG. 13)” value in assay [1] (20% addition group) is “the remineralization effect as previously reported (as above) was confirmed”. Further, the “effect of xylitol (remineralization)” value in assay [1] (statement in the background referring to the Examples) is on record as “not substantially confirmed”.

On to `OC[C@@H](O)[C@@H](O)[C@H](O)[C@@H](O)CO` [sorbitol], for which, in assay [1] (20% addition group), the “remineralization effect (FIG. 13)” value was “the remineralization effect as previously reported (as above) was confirmed”.

On to `O=C[C@H](O)[C@@H](O)[C@H](O)[C@H](O)COP(=O)(O)O` [glucose-6-phosphate], for which, in assay [1], the “remineralization effect (FIG. 12)” value is given as “as good as or better than that of the phosphorylated oligosaccharide sodium salt”.

For dermatan sulfate, the “remineralization effect (FIG. 13)” value in assay [1] (final concentration of 0.2%) is “confirmed to have the remineralization effect”.

With `O=C[C@H](O)[C@@H](O)[C@H](O)CO` [xylose], the “remineralization percentage (FIG. 7B)” value in assay [1] (37° C., 8 days) was “low at any concentration”.
